Numbering of substitutions follows the chain as printed. Where a SMILES comes first, the peptide text is derived from it. Bridges are numbered along the chain shown (N, C = ends).
Tests used:
Format in all cases: cell-based
hCTR F359A = target: T1, hCTR F359A (Homo sapiens, UniProt P30988, F359A); assay: ERK1/2 phosphorylation; conditions: for Emax: read-out: Emax (% WT); for EC50: pERK, hCTR F359A, CV1-FlpIn cells, three-parameter logistic fit, mean ± S.E.M.
T1 construct: expressed in transfected cells
T1 sequence (P30988 25-474 F359A): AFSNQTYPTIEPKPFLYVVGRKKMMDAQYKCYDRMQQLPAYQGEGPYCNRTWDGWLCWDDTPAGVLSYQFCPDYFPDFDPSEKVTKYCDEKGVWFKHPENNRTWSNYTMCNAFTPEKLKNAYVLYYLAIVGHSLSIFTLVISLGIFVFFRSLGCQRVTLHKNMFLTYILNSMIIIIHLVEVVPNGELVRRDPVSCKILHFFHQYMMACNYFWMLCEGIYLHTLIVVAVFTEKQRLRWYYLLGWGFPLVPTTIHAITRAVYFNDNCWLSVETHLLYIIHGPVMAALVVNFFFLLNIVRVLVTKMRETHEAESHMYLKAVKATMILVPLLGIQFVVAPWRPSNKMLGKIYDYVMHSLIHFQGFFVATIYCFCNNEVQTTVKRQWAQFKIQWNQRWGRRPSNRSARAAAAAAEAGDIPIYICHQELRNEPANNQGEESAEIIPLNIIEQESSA
Description: (§1) Cells (2.5 × 10^4 cells/well) were seeded into 96-well culture plates and incubated overnight. […] Data were normalized to the maximal response elicited by 10% FBS determined at 6 min.
(§2) Data were corrected for radioligand occupancy using the Cheng-Prusoff equation in Prism; as such data are reported as pKi. Emax and EC50 were estimated from concentration-response curves using with a 3-parameter logistic equation in Prism (v7). These values are a composite of functional affinity, efficacy and stimulus response coupling. […] Significance was accepted at P < 0.05.

hCTR P360A = target: T2, hCTR P360A (Homo sapiens, UniProt P30988, P360A); assay: ERK1/2 phosphorylation; conditions: CV1-FlpIn cells, mean ± S.E.M.; for Emax: pERK maximal response
T2 construct: expressed in transfected cells
T2 sequence (P30988 25-474 P360A): T1 sequence (P30988 25-474 F359A) with A335F, P336A
Description: as §1, §2

hCTR T295A = target: T3, hCTR T295A (Homo sapiens, UniProt P30988, T295A); assay: ERK1/2 phosphorylation; conditions: CV1-FlpIn cells, mean ± S.E.M.; for Emax: pERK maximal response; for EC50: pERK, three-parameter logistic fit
T3 construct: c-Myc (N); expressed in transfected cells
T3 sequence (P30988 25-474 T295A): T1 sequence (P30988 25-474 F359A) with T271A, A335F
Description: as §1, §2

hCTR E294A = target: T4, hCTR E294A (Homo sapiens, UniProt P30988, E294A); assay: cAMP accumulation; conditions: mean ± S.E.M.; for Emax: cAMP maximal response, SEM; for EC50: cAMP, CV1-FlpIn cells, 30 min, IBMX
T4 construct: c-Myc (N); expressed in transfected cells
T4 sequence (P30988 25-474 E294A): T1 sequence (P30988 25-474 F359A) with E270A, A335F
Outline: (§3)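 Cells expressing the receptor mutant were seeded overnight, then stimulated with increasing ligand concentrations for 30 min in the presence of IBMX. After ethanol extraction and drying at room temperature, cAMP was measured and normalized to the 100 μM forskolin response. EC50 and Emax came from 3-parameter logistic fits.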

hCTR W290A = target: T5, hCTR W290A (Homo sapiens, UniProt P30988, W290A); assay: cAMP accumulation; conditions: mean ± S.E.M.; for Emax: cAMP maximal response, SEM
T5 construct: c-Myc (N); expressed in transfected cells
T5 sequence (P30988 25-474 W290A): T1 sequence (P30988 25-474 F359A) with W266A, A335F
Outline: as §3

EC50 (hCTR F359A) [nM]	EC50 (hCTR T295A) [nM]	EC50 (hCTR E294A) [nM]	EC50 (hCTR P360A; pERK, three-parameter logistic fit) [nM]	EC50 (hCTR W290A; cAMP, CV1-FlpIn cells, 30 min, IBMX) [nM]	Structure (SMILES)	Emax (hCTR F359A) [%]	Emax (hCTR P360A) [%]	Emax (hCTR T295A) [%]	Emax (hCTR E294A) [%]	Emax (hCTR W290A) [%]
					CC[C@H](C)[C@H](NC(=O)[C@H](C)NC(=O)[C@@H](NC(=O)[C@H](CCC(N)=O)NC(=O)[C@@H]1CCCN1C(=O)[C@H](Cc1ccccc1)NC(=O)[C@@H](NC(=O)[C@H](Cc1c[nH]cn1)NC(=O)[C@H](Cc1ccccc1)NC(=O)[C@H](CCCCN)NC(=O)[C@H](CC(N)=O)NC(=O)[C@H](Cc1ccccc1)NC(=O)[C@H](CC(=O)O)NC(=O)[C@H](CCC(N)=O)NC(=O)[C@@H](NC(=O)[C@H](Cc1ccc(O)cc1)NC(=O)[C@@H](NC(=O)CNC(=O)[C@H](CC(C)C)NC(=O)[C@H](CCSC)NC(=O)[C@@H]1CSSC[C@H](N)C(=O)NCC(=O)N[C@@H](CC(N)=O)C(=O)N[C@@H](CC(C)C)C(=O)N[C@@H](CO)C(=O)N[C@@H]([C@@H](C)O)C(=O)N1)[C@@H](C)O)[C@@H](C)O)[C@@H](C)O)[C@@H](C)O)C(=O)NCC(=O)N[C@H](C(=O)NCC(=O)N[C@@H](C)C(=O)N1CCC[C@H]1C(N)=O)C(C)C [hCT]	153 ± 8	51 ± 6	48 ± 6	105 ± 5	164 ± 20
6.31	20.9	49			CC(C)C[C@H](NC(=O)CNC(=O)[C@H](C)NC(=O)[C@H](CC(C)C)NC(=O)[C@H](CCCNC(=N)N)NC(=O)[C@H](Cc1cnc[nH]1)NC(=O)[C@@H](NC(=O)[C@@H](NC(=O)[C@@H]1CSSC[C@H](NC(=O)[C@H](C)N)C(=O)N[C@@H](CC(=O)O)C(=O)N[C@@H]([C@@H](C)O)C(=O)N[C@@H](C)C(=O)N[C@@H]([C@@H](C)O)C(=O)N1)C(C)C)[C@@H](C)O)C(=O)N[C@@H](CC(C)C)C(=O)N[C@@H](CO)C(=O)N[C@@H](CCCNC(=N)N)C(=O)N[C@@H](CO)C(=O)NCC(=O)NCC(=O)N[C@H](C(=O)N[C@H](C(=O)N[C@@H](CCCCN)C(=O)N[C@@H](CC(N)=O)C(=O)N[C@@H](CC(N)=O)C(=O)N[C@@H](Cc1ccccc1)C(=O)N[C@H](C(=O)N1CCC[C@H]1C(=O)N[C@H](C(=O)N[C@@H](CC(N)=O)C(=O)N[C@H](C(=O)NCC(=O)N[C@@H](CO)C(=O)N[C@@H](CCCCN)C(=O)N[C@@H](C)C(=O)N[C@@H](Cc1ccccc1)C(N)=O)C(C)C)[C@@H](C)O)C(C)C)C(C)C)C(C)C [hαCGRP]			22 ± 4	137 ± 31	
6.31	0.759	0.0398	39.8	3.31	CSCC[C@H](NC(=O)CNC(=O)[C@H](CO)NC(=O)[C@H](Cc1ccccc1)NC(=O)[C@H](CCCNC(=N)N)NC(=O)[C@H](Cc1c[nH]cn1)NC(=O)[C@H](Cc1ccccc1)NC(=O)[C@H](CC(N)=O)NC(=O)[C@H](CC(N)=O)NC(=O)[C@H](CC(C)C)NC(=O)[C@H](CC(N)=O)NC(=O)[C@H](CCCNC(=N)N)NC(=O)[C@H](Cc1c[nH]c2ccccc12)NC(=O)[C@H](Cc1ccc(O)cc1)NC(=O)[C@H](C)NC(=O)[C@H](CO)NC(=O)[C@H](CC(C)C)NC(=O)[C@@H](NC(=O)[C@@H]1CSSC[C@H](N)C(=O)N[C@@H](CO)C(=O)N[C@@H](CC(N)=O)C(=O)N[C@@H](CC(C)C)C(=O)N[C@@H](CO)C(=O)N[C@@H]([C@@H](C)O)C(=O)N1)C(C)C)C(=O)NCC(=O)N[C@@H](Cc1ccccc1)C(=O)NCC(=O)N1CCC[C@H]1C(=O)N[C@@H](CCC(=O)O)C(=O)N[C@H](C(=O)N1CCC[C@H]1C(N)=O)[C@@H](C)O [pCT] (H-CSNLSTCVLSAYWRNLNNFHRFSGMGFGPETP-NH2; disulfide 1-7)		59 ± 7	50 ± 5	105 ± 6	113 ± 12
					CC(C)C[C@H](NC(=O)[C@H](CC(N)=O)NC(=O)[C@H](CC(N)=O)NC(=O)[C@H](CO)NC(=O)[C@H](CO)NC(=O)[C@H](CCCNC(=N)N)NC(=O)[C@@H](NC(=O)[C@H](CC(C)C)NC(=O)[C@H](Cc1ccccc1)NC(=O)[C@H](CC(N)=O)NC(=O)[C@H](C)NC(=O)[C@H](CC(C)C)NC(=O)[C@H](CCCNC(=N)N)NC(=O)[C@H](CCC(N)=O)NC(=O)[C@@H](NC(=O)[C@H](C)NC(=O)[C@@H]1CSSC[C@H](NC(=O)[C@@H](N)CCCCN)C(=O)N[C@@H](CC(N)=O)C(=O)N[C@@H]([C@@H](C)O)C(=O)N[C@@H](C)C(=O)N[C@@H]([C@@H](C)O)C(=O)N1)[C@@H](C)O)C(C)C)C(=O)NCC(=O)N1CCC[C@H]1C(=O)N[C@H](C(=O)N[C@@H](CC(C)C)C(=O)N1CCC[C@H]1C(=O)N1CCC[C@H]1C(=O)N[C@H](C(=O)N[C@@H](CC(N)=O)C(=O)N[C@H](C(=O)NCC(=O)N[C@@H](CO)C(=O)N[C@@H](CC(N)=O)C(=O)N[C@H](C(=O)N[C@@H](Cc1ccc(O)cc1)C(N)=O)[C@@H](C)O)C(C)C)[C@@H](C)O)C(C)C [rAmy]	58 ± 11		28 ± 5	90 ± 9	72 ± 26
					CC(C)C[C@H](NC(=O)[C@H](CCCCN)NC(=O)CNC(=O)[C@H](CC(C)C)NC(=O)[C@@H](NC(=O)[C@@H]1CSSC[C@H](N)C(=O)N[C@@H](CO)C(=O)N[C@@H](CC(N)=O)C(=O)N[C@@H](CC(C)C)C(=O)N[C@@H](CO)C(=O)N[C@@H]([C@@H](C)O)C(=O)N1)C(C)C)C(=O)N[C@@H](CO)C(=O)N[C@@H](CCC(N)=O)C(=O)N[C@@H](CCC(=O)O)C(=O)N[C@@H](CC(C)C)C(=O)N[C@@H](Cc1c[nH]cn1)C(=O)N[C@@H](CCCCN)C(=O)N[C@@H](CC(C)C)C(=O)N[C@@H](CCC(N)=O)C(=O)N[C@H](C(=O)N[C@@H](Cc1ccc(O)cc1)C(=O)N1CCC[C@H]1C(=O)N[C@@H](CCCNC(=N)N)C(=O)N[C@H](C(=O)N[C@@H](CC(N)=O)C(=O)N[C@H](C(=O)NCC(=O)N[C@@H](CO)C(=O)NCC(=O)N[C@H](C(=O)N1CCC[C@H]1C(N)=O)[C@@H](C)O)[C@@H](C)O)[C@@H](C)O)[C@@H](C)O [sCT]	186 ± 7	115 ± 9	49 ± 4	98 ± 9	154 ± 7

Reference: publication PMC5908784, “Extracellular loops 2 and 3 of the calcitonin receptor selectively modify agonist binding and efficacy” (Biochemical Pharmacology, 2018)
